Source: patent US10806726B2, “Methods of using indazole-3-carb oxamides and their use as Wnt/B-catenin signaling pathway inhibitors” (Samumed, LLC, priority 2016, dated 2020)

Tests used:
Type in all cases: cell-based
[1] = tested on: primary human mesenchymal stem cells (hMSCs); assay: Tenocyte differentiation screening in hMSCs (SCXA-positive cells, 4 days); details: 96 h, fold change over DMSO
Procedure, shortened: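 Primary hMSCs at passage 3–6 were treated with compound, fixed and immunostained for SCXA, and SCXA-positive cells per well were counted by imaging. Counts were normalized to DMSO wells as fold change, averaged over triplicates, and EC50 was fitted, with high-dose values manually corrected for solubility.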

[2] = tested on: IL6 production in THP-1 cells; assay: Cytokine Production Assay, LPS-induced IL6 in THP-1 cells; details: Homo sapiens; THP-1, LPS 500 ng/ml 22 hours, 2 independent assays; read-out: average EC50, inhibition of IL6 production
Procedure: THP-1 cells were cultured in basal media with 1% FBS for 24 hours before the start of the assay. THP-1 cells were plated at 6×10e^4 cells/well and treated with DMSO (vehicle control) or compound 175 at 10 μM highest test concentration and 2 to 3.5-fold serial dilutions up to 8 concentrations (10, 3.5, 1, 0.5, 0.1, 0.035, 0.01, 0.005 μM). For the TNFα assay, 50 ng/mL of LPS was added to the wells after 2 hours to induce cytokine production, and cells were incubated for 5 hours at 37° C. For the IL6 assay, 500 ng/ml of LPS was added after 2 hours and cells were incubated for 22 hours at 37° C. Plates were spun in a centrifuge for 1 minute at 10,000 rpm and supernatants were collected for ELISA. Supernatants were diluted 1:1 for the TNFα assay and 1:4 for the IL6 assay using the assay medium. ELISA was performed using Human TNF-α ELISA MAX™ Deluxe (Catalog #430204, Biolegend, San Diego, Calif.) and Human IL-6 ELISA MAX™ Deluxe (Catalog #430504, Biolegend, San Diego, Calif.) kits. […] Following several washes to remove unbound avidin-HRP, the TMB substrate was added and the plates were read on the Cytation 3 plate reader (Biotek Inc., Winooski, Vt.) at an absorbance of 450 nm with correction at 570 nm. […] Inhibition profile and EC50 was calculated using Prism 5 (GraphPad Software Inc, La Jolla, Calif., USA). […]

[3] = tested on: Wnt responsive promoter linked to luciferase gene in SW480 cells; assay: Wnt Reporter Assay, SW480, 48 hours (Example 10); details: Homo sapiens, 10-0.0003 μM, read-out: EC50, inhibition of Wnt pathway activity
Procedure: SW480 cells (ATCC) were cultured in Dulbecco's modified Eagle's medium (DMEM, ThermoFisher) with 1% Glutamax (Life Technologies), 1% Penicillin-Streptomycin (Life Technologies), 150 ug/ml Hygromycin (Life Technologies) with 10% fetal bovine serum (FBS) (Hyclone) at 37° C., 5% CO2.
Wnt Reporter Assay. Human colorectal cancer cell line SW480, stably expressing the Wnt responsive promoter linked to luciferase gene, was plated overnight at 4×10e^4 cells/well in DMEM, high glucose, no glutamine, no phenol red (Life Technologies), 1% Glutamax (Life Technologies), 1% Sodium Pyruvate (Life Technologies), 1% Penicillin-Streptomycin (Life Technologies) with 1% Fetal Bovine Serum (Hyclone). Cells were then treated with DMSO (vehicle control) or COMPOUND 175 at 10 μM top concentration and half a log dilution up to 10 concentrations (10, 3, 1, 0.3, 0.1, 0.03, 0.01, 0.003, 0.001 and 0.0003 μM). Cells were incubated for 48 hours at 37° C. 15 μl of Bright-Glo (Bright-Glo™ Luciferase Assay System, Promega) was added to the cells and luminescence was measured using the Cytation 3 plate reader (Biotek). Data was normalized using the DMSO control and inhibition profile and EC50 was calculated using Prism 4 (GraphPad Software Inc, La Jolla, Calif., USA). Prism 4.0 was used to calculate the EC50 of the Wnt reporter inhibition assay.

EC50 [1]: 10.4 µM | EC50 [2]: 0.356 to 0.629 µM | EC50 [3]: 0.153 µM
Structure (SMILES): COc1ccc(NC(=O)c2n[nH]c3ccc(-c4cncc(CN5CCCCC5)c4)cc23)cn1 [compound 175, N-(6-Methoxypyridin-3-yl)-5-(5-(piperidin-1-ylmethyl)pyridin-3-yl)-1H-indazole-3-carboxamide]
